Experimental data reported in patent publication US20260060991A1, “METHODS AND COMPOSITIONS FOR INHIBITING CLONAL HEMATOPOIESIS” (The Jackson Laboratory, priority 2022, published 2026).
Entries after “also recorded” stand apart in the source; their conditions may differ.

Tested on: WT recipient mice transplanted with Dnmt3a-mutant cells (Dnmt3a;Npm1-mutant)
Test: Navitoclax treatment of mice transplanted with Dnmt3a-mutant cells, followed by tamoxifen induction of the Npm1 mutation (progression from clonal hematopoiesis to myeloid malignancy)
Format: in vivo, mouse
Description: FIG. 6A-6E: Navitoclax treatment attenuates Dnmt3a-mutant peripheral blood myeloid cell overproduction. (FIG. 6A) Dnmt3a-mutant cells were transplanted into wild type recipient mice, 12 weeks post-transplant Navitoclax or vehicle control was administered, and 2 weeks later the Npm1 mutation was induced in the Dnmt3a-mutant cells. (FIG. 6B) Frequency of donor-derived mature Dnmt3a;Npm1-mutant myeloid cells in peripheral blood of Navitoclax or vehicle control treated transplant mice. (FIG. 6C) Engraftment of donor-derived mature Dnmt3a;Npm1-mutant myeloid cells in BM (FIG. 6D) β-gal expression in BMSCs, and (FIG. 6E) monocyte count in navitoclax versus vehicle treated mice.
Next, the functional importance of BMSC senescence in Dnmt3a-mutant transformation to AML was evaluated. Dnmt3a-mutant cells were transplanted into WT recipient mice, administered the senolytic Navitoclax or vehicle control, and then induced the AML driver mutation Npm1^c in vivo.
Using the senolytic Navitoclax, targeting Bcl-2/Bcl-xL, we evaluated the extent to which removing senescent cells caused by Dnmt3a-mutant haematopoiesis in vivo would delay progression from clonal hematopoiesis to myeloid malignancy. Briefly, Dnmt3a-mutant cells (cells from BM derived from CD45.2^+; Dnmt3a^R787H/+ MxCre; Npm1^frt-cA/+Flpo^ERT mice) were transplanted into recipient mice (CD45.1^+ mice) (FIG. 6A). After 12 weeks (‘Pre-senolytic’), recipient mice were either administered vehicle control or the senolytic agent, navitoclax, by oral gavage to selectively deplete senescent cells. Navitoclax was administered at a dosage of 50 mg/kg/day for 1 week, followed by 2 weeks of no treatment, followed by 1 week of treatment. Blood samples were collected from Pre-senolytic mice before administration of vehicle control or navitoclax. Following navitoclax treatment (‘Post-senolytic’), the AML driver mutation Npm1^cA/+ (‘TAM’) was induced using tamoxifen to initiate progression to myeloid malignancy. Blood samples were collected from Post-senolytic mice and TAM mice. Tamoxifen was administered for a period of 1 week. Blood samples were taken from tamoxifen treated mice (“Post-Npm1”).

## navitoclax
5 months after tamoxifen treatment (harvest), relative to vehicle treated controls, FIG. 6C
  frequency of donor (CD45.2+) cells in the BM: lower frequency
5 months after tamoxifen treatment (harvest), relative to vehicle treated controls, FIG. 6D
  BMSC senescence (measured by β-gal): maintained lower BMSC senescence
5 months after tamoxifen treatment (harvest), relative to vehicle treated controls, FIG. 6E
  monocyte ("white blood cell" or "WBC") count: reduced monocyte
Post-Npm1 sampling, navitoclax 50 mg/kg/day oral gavage, 1 week on, 2 weeks off, FIG. 6B
  frequency of myeloid cells (CD45.2+) in the peripheral blood (PB): reduced frequency
Concurrent with transformation of Dnmt3a;Npm1-mutant cells, vs vehicle control
  peripheral blood myeloid cell overproduction: reduced; also recorded: attenuates
